# Reference: patent US8048880B2, “Treatment of cardiovascular disease and dyslipidemia using secretory phospholipase A2 (SPLA2) inhibitors and SPLA2 inhibitor combination therapies” (Anthera Pharmaceuticals, Inc., priority 2007, dated 2011)
# Tests used:
# ApoE−/− mice = experiment: Plasma total cholesterol and HDL levels in ApoE−/− mice, A-002 and/or statin (Example 3); type: in vivo; settings: alone or plus 0.02 g/kg pravastatin, 12 weeks
# Description: Body weight, plasma total cholesterol, and plasma HDL levels were measured for six groups of twelve ApoE^−/− mice. The mice were then placed on a high fat diet for twelve weeks to allow for formation of significant fatty atherosclerotic plaques. The high fat diet was a modified version of the Western diet (TD.88137, Harlan Teklad, Madison, Wis.) consisting of casein (195 g/kg), DL-methionine (3 g/kg), sucrose (341.44 g/kg), corn starch (150 g/kg), anhydrous milkfat (210 g/kg), cholesterol (1.5 g/kg), cellulose (50 g/kg), mineral mix AlN-76 (Teklad; 35 g/kg), calcium carbonate (4 g/kg), vitamin mix (Teklad #40060; 10 g/kg), ethyoxyquin (antioxidant, 0.04 g/kg), and either 0.0156 g/kg (“low dose”) A-002 (Group A), 1.56 g/kg (“high dose”) A-002 (Group B), 0.02 g/kg pravastatin (Group C), low dose A-002 plus 0.02 g/kg pravastatin (Group D), high dose A-002 plus 0.02 g/kg pravastatin (Group E), or vehicle only (Group F). Mice were administered diets A-F in a blinded manner, and food was provided ad libitum. The diet was initially prepared based on the assumption that each mouse weighed 22.5 g and ate 4.5 g/day. Based on body weight and food consumption, the diet was modified over the 12 week course of treatment to adjust for a body weight of 26 g and a food intake of 2.5 g/day. The dosages of A-002 were selected to cover a range of 100-fold based on pharmacokinetics in ApoE^−/− mice as well as toxicology and previously observed efficacy in this model.
# Plasma total cholesterol and HDL levels were measured. Mean levels of total cholesterol were decreased in mice administered A-002 alone or in combination with statin (Table 3, FIG. 6). […] Mean levels of HDL were increased in mice administered A-002 at either dosage (Table 4). This increase was greater in mice administered high dose A-002 plus statin than in mice administered high dose A-002 or statin alone (Table 4 compare Group E vs. Groups B and C; FIG. 7).
# [1] = system: human subjects with CVD, specifically stable CAD; experiment: Serum lipid levels and LDL particle size in humans, A-002 once a day for eight weeks (Example 6); type: in vivo; settings: for % change vs. baseline (mean LDL particle size) / % change vs. baseline (mean [non-HDL cholesterol]) / % change vs. baseline (mean [total cholesterol]) / % change vs. baseline (median [ApoB]) / % change vs. baseline (median [TG]) / % change vs. baseline (median [oxidized LDL]) / % change vs. baseline (median [small LDL particle]) / Change in mean LDL particle size vs. baseline / Change in mean [non-HDL cholesterol] vs. baseline / Change in mean [total cholesterol] vs. baseline / Change in median [ApoB] vs. baseline / Change in median [TG] vs. baseline / Change in median [oxidized LDL] vs. baseline / Change in median [small LDL particle] vs. baseline / % change vs. baseline (mean [LDL]) / Change in mean [LDL] vs. baseline: week 8
# [2] = high dose A-002 (1.56 g/kg diet)
# [3] = low dose A-002 (0.0156 g/kg diet)
# [4] = ITT population, A-002 once a day
# [5] = serum, ITT population, A-002 250 or 500 mg once a day
# [6] = statin subpopulation with baseline serum LDL greater than 70 mg/dl, A-002 once a day
# [7] = statin subpopulation, A-002 once a day
structure (smiles),measurement,setting,value
"CCc1c(C(=O)C(N)=O)c2c(OCC(=O)OC)cccc2n1Cc1ccccc1 [A-002, [[3-(2-Amino-1,2-dioxoethyl)-2-ethyl-1-(phenylmethyl)-1H-indol-4-yl]oxy]acetic acid methyl ester]",Mean HDL concentration,ApoE−/− mice; [2],17.167 mg/dL
same,Mean total cholesterol concentration,ApoE−/− mice; [2],1301.750 mg/dL
same,Mean HDL concentration,ApoE−/− mice; [3],21.000 mg/dL
same,Mean total cholesterol concentration,ApoE−/− mice; [3],1355.545 mg/dL
same,combined effect of A-002 and statins on LDL levels versus either compound alone,"[1]; A-002 once a day, expected once additional non-statin controls are obtained",synergistic decrease in LDL levels
same,% change vs. baseline (mean LDL particle size),[1]; [4],+0.6%
same,% change vs. baseline (mean [non-HDL cholesterol]),[1]; [4],−9.9%
same,% change vs. baseline (mean [total cholesterol]),[1]; [4],−7.3%
same,% change vs. baseline (median [ApoB]),[1]; [4],−11.9%
same,% change vs. baseline (median [TG]),[1]; [4],−9.8%
same,% change vs. baseline (median [oxidized LDL]),[1]; [4],−3.6%
same,% change vs. baseline (median [small LDL particle]),[1]; [4],−9.1%
same,Change in mean LDL particle size vs. baseline,[1]; [4],+0.11 nm
same,Change in mean [non-HDL cholesterol] vs. baseline,[1]; [4],-10.5 mg/dL
same,Change in mean [total cholesterol] vs. baseline,[1]; [4],-11.5 mg/dL
same,Change in median [ApoB] vs. baseline,[1]; [4],-8.1 mg/dL
same,Change in median [TG] vs. baseline,[1]; [4],-13.0 mg/dL
same,Change in median [oxidized LDL] vs. baseline,[1]; [4],−1.4 U/L
same,Change in median [small LDL particle] vs. baseline,[1]; [4],-74.0 nmol/L
same,% change vs. baseline (mean [LDL]),[1]; [5],−8.3%
same,Change in mean [LDL] vs. baseline,[1]; [5],-7.1 mg/dL
same,% change vs. baseline (mean LDL particle size),[1]; [6],+1.0%
same,% change vs. baseline (mean [LDL]),[1]; [6],−15.0%
same,% change vs. baseline (mean [non-HDL cholesterol]),[1]; [6],−13.7%
same,% change vs. baseline (mean [total cholesterol]),[1]; [6],−10.5%
same,% change vs. baseline (median [ApoB]),[1]; [6],−18.7%
same,% change vs. baseline (median [oxidized LDL]),[1]; [6],−5.6%
same,% change vs. baseline (median [small LDL particle]),[1]; [6],−12.3%
same,Change in mean LDL particle size vs. baseline,[1]; [6],+0.19 nm
same,Change in mean [LDL] vs. baseline,[1]; [6],-13.9 mg/dL
same,Change in mean [non-HDL cholesterol] vs. baseline,[1]; [6],-16.7 mg/dL
same,Change in mean [total cholesterol] vs. baseline,[1]; [6],-18.0 mg/dL
same,Change in median [ApoB] vs. baseline,[1]; [6],-13.1 mg/dL
same,Change in median [oxidized LDL] vs. baseline,[1]; [6],−2.8 U/L
same,Change in median [small LDL particle] vs. baseline,[1]; [6],-115.0 nmol/L
same,% change vs. baseline (mean LDL particle size),[1]; [7],+0.5%
same,% change vs. baseline (mean [LDL]),[1]; [7],−8.2%
same,% change vs. baseline (mean [non-HDL cholesterol]),[1]; [7],−9.9%
same,% change vs. baseline (mean [total cholesterol]),[1]; [7],−7.3%
same,% change vs. baseline (median [ApoB]),[1]; [7],−11.9%
same,% change vs. baseline (median [TG]),[1]; [7],−10.9%
same,% change vs. baseline (median [oxidized LDL]),[1]; [7],−2.9%
same,% change vs. baseline (median [small LDL particle]),[1]; [7],−8.2%
same,Change in mean LDL particle size vs. baseline,[1]; [7],+0.10 nm
same,Change in mean [LDL] vs. baseline,[1]; [7],-6.7 mg/dL
same,Change in mean [non-HDL cholesterol] vs. baseline,[1]; [7],-10.1 mg/dL
same,Change in mean [total cholesterol] vs. baseline,[1]; [7],-11.2 mg/dL
same,Change in median [ApoB] vs. baseline,[1]; [7],-7.9 mg/dL
same,Change in median [TG] vs. baseline,[1]; [7],-13.0 mg/dL
same,Change in median [oxidized LDL] vs. baseline,[1]; [7],−1.1 U/L
same,Change in median [small LDL particle] vs. baseline,[1]; [7],-66.0 nmol/L
